# Experimental data as given in PubChem BioAssay AID463178 (University of Pittsburgh Molecular Library Screening Center, 2010).
# Activity calls are given as the source filed them.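 How the source made its calls: active means IC50 below a set limit in both duplicate runs and mean IC50 below a set limit; inconclusive means IC50 above a set limit in only one run; inactive means IC50 above a set limit in both runs and mean.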
# System: Jurkat FADD-/- TNF-alpha necroptosis, CellTiter-Glo ATP, 24 h
# Assay: rescue of FADD-deficient Jurkat cells, IC50 – duplicate IC50, dose response (AID 463178)
row,Structure (SMILES),IC50
1,COc1ccc(/C=C2\N=C(SC)NC2=O)cc1,> 20 µM (inactive)
2,O=[N+]([O-])c1ncn(Cc2ccccc2Cl)n1,2.51 µM
3,O=[N+]([O-])c1ccc(Nc2ccc(F)cc2)nc1,14.6 µM
4,COc1ccc(-c2nc3c(-c4ccccc4)cnn3cc2C)cc1F,> 20 µM (inactive)
5,O=C(CSC(=S)N1CCOCC1)N1N=CCC1c1ccccc1 (stereo unspecified),9.41 µM
6,S=C(Nc1ccccc1)N1N=CCC1c1ccccc1 (stereo unspecified),7.65 µM
7,CC(NC(=O)c1cc(Br)ccc1Cl)c1ccccc1 (stereo unspecified),> 20 µM (inactive)
8,Cc1ccc(CN2CCSc3sccc3C2=O)cc1,9.28 µM
9,Brc1ccc(COn2ccnc2)cc1,6.31 µM
10,O=C(Nc1nccs1)c1cc2c(s1)CCCCC2,> 20 µM (inactive)
11,COc1ccc(/C=N/Nc2nc3ccccc3s2)cc1O,> 20 µM (inactive)
12,COc1ccc(C2CN=NC2C(=O)c2ccccc2)cc1 (stereo unspecified),16.4 µM
13,O=C(Nc1nccs1)c1ccc(S(=O)(=O)N2CCCCC2)cc1,> 20 µM (inactive)
14,COC(C(=O)Nc1ccc(F)cc1)c1ccccc1 (stereo unspecified),2.15 µM
15,COc1ccc(NC(C)c2ccccc2)cc1 (stereo unspecified),14.1 µM
16,CC(=O)N(c1ccccc1)c1nnc(-c2cnc(C)cn2)s1,10.6 µM
17,O=C(Nc1ccccc1)N1N=CCC1c1ccccc1 (stereo unspecified),1.48 µM
18,CC(Nc1nc(-c2ccc3c(c2)NC(=O)CO3)cs1)c1ccccc1 (stereo unspecified),> 20 µM (inactive)
19,OC(c1ccccc1)c1nc2ccccc2s1 (stereo unspecified),14.6 µM
20,O=C(Cn1cnc2ccc(Br)cc2c1=O)c1cccs1,> 20 µM (inactive)
21,O=C(C1COc2ccccc2O1)N1CCc2ccccc21 (stereo unspecified),5.82 µM
22,COC(C(=O)Nc1cccc(F)c1)c1ccccc1 (stereo unspecified),6.43 µM
23,c1ccc(C2CC3CC4(CCCC4)N2O3)cc1 (stereo unspecified),3.81 µM
24,O=C(Nc1ncc(Cc2ccccc2)s1)C1COc2ccccc2O1 (stereo unspecified),> 20 µM (inactive)

row,Structure (SMILES),IC50
1,O=C(Nc1ccc(Cl)cn1)C1COc2ccccc2O1 (stereo unspecified),> 20 µM (inactive)
2,COC(C(=O)Nc1ccc(F)c(F)c1)c1ccccc1 (stereo unspecified),1.52 µM
3,COC(C(=O)Nc1ccccc1F)c1ccccc1 (stereo unspecified),4.25 µM
4,Cc1ccc(C2CC(=O)NC(SCC(=O)Nc3nccs3)=C2C#N)cc1 (stereo unspecified),> 20 µM (inactive)
5,Fc1ccc(C2=NNC(=NCc3ccccc3)SC2)cc1F,> 20 µM (inactive)
6,c1csc(Cc2nc3ccccc3[nH]2)c1,8.85 µM
7,O=C(CSCc1ccc([N+](=O)[O-])cc1)NC1CC2CCC1C2 (stereo unspecified),13.6 µM
8,O=[N+]([O-])c1ccc(Nc2ccc(Cl)cc2)nc1,> 20 µM (inactive)
9,COC(=O)c1ccn(Cc2ccccc2Cl)n1,0.881 µM
10,Fc1ccc(NC(=S)N2N=CCC2c2ccccc2)cc1 (stereo unspecified),3.38 µM
11,O=[N+]([O-])c1ccc(Nc2cccc(F)c2)nc1,19.6 µM
12,Clc1ccc(COn2ccnc2)cc1Cl,1.97 µM
13,O=C(Nc1cccc(Cl)c1)N1N=CCC1c1ccccc1 (stereo unspecified),1.28 µM
14,O=[N+]([O-])c1ccc(Nc2ccccc2)nc1,15.3 µM
15,CC(=O)Nc1ccc(/C=N/Nc2nc3ccccc3s2)cc1,> 20 µM (inactive)
16,O=C(CSc1nnnn1-c1ccccc1)N1N=CCC1c1ccccc1 (stereo unspecified),6.27 µM
17,COc1ccc(-n2c(C)nn(CC3CC3)c2=O)cc1,5.12 µM
18,CC(=O)N(CC1CCCO1)c1nnc(-c2ccccn2)s1 (stereo unspecified),9.72 µM
19,O=C(CSCc1ccc([N+](=O)[O-])cc1)NC1CCCCCC1,10 µM
20,C/C(Cl)=C/CN1C(=O)C2C3C=CC(C3)C2C1=O (stereo unspecified),6.41 µM
21,CCC(C)c1ccc(O)c(NC(=O)c2cncc(Br)c2)c1 (stereo unspecified),> 20 µM (inactive)
22,COC(C(=O)Nc1ccc(S(=O)(=O)N2CCCCC2)cc1)c1ccccc1 (stereo unspecified),> 20 µM (inactive)
23,Cc1cc(N/N=C/c2ccncc2)nc2ccccc12,> 20 µM (inactive)
24,Cc1cc([N+](=O)[O-])nn1Cc1ccc(F)cc1,7.15 µM

row,Structure (SMILES),IC50
1,O=C1NC(=Nc2ccccc2)SC1Cc1cccc(Cl)c1Cl (stereo unspecified),> 20 µM (inactive)
2,COc1ccc(NC(=S)N2N=CCC2c2ccccc2)cc1 (stereo unspecified),12.9 µM
3,CCn1c([N+](=O)[O-])nc2c1c(=O)[nH]c(=O)n2C,> 20 µM (inactive)
4,O=C(C1=NNCC1c1ccccc1)C1CO1 (stereo unspecified),4.94 µM
5,O=S(=O)(Nc1ccccc1)c1ccc2c(c1)CCO2,9.75 µM
6,Cc1ccc(NC(=O)C2COc3ccccc3O2)nc1 (stereo unspecified),10 µM
7,O=C(C1=NNCC1c1ccc(Cl)cc1)C1CO1 (stereo unspecified),7.86 µM
8,COc1ccc(NC(=O)C(OC)c2ccccc2)cc1Cl (stereo unspecified),12 µM
9,Cc1ccc(Oc2ccccc2/C=C2\SC(=O)N(C)C2=O)cc1,> 20 µM (inactive)
10,CC(=O)Nc1ccn(Cc2c(F)cccc2Cl)n1,3.52 µM
11,O=S(=O)(c1cccc2cccnc12)N1CCN(c2ccc(F)cc2)CC1,> 20 µM (inactive)
12,Cc1ccc(Cn2cnc3sc4c(c3c2=O)CCC4)c(C)c1,> 20 µM (inactive)
13,O=C(Nc1ccc(Cl)cc1)N1N=CCC1c1ccccc1 (stereo unspecified),11.6 µM
14,CN(CC1CCCO1)S(=O)(=O)c1ccc(C(=O)Nc2nccs2)cc1 (stereo unspecified),12.9 µM
15,COc1ccc(/C=N/Nc2ccccn2)cc1O,14.8 µM
16,O=C(COc1ccccc1Cl)NC(=O)NC1CCCC1,12.6 µM
17,O=[N+]([O-])c1ccc(Nc2ccccc2F)nc1,15.5 µM
18,O=C(O)c1ccc(/C=N/Nc2ccc(C(F)(F)F)cn2)cc1,6.32 µM
19,COc1ccc(-n2c(C)nc3sc4c(c3c2=O)CCCC4)cc1,13.9 µM
20,COc1ccc(/C=N/Nc2ccccn2)cc1OC,> 20 µM (inactive)
21,c1ccc(CSc2nnc(-c3ccco3)o2)cc1,17.3 µM
22,O=C1c2ccsc2SCCN1Cc1ccccc1,6.07 µM
23,O=C(Cc1c(F)cccc1Cl)Nc1ncc([N+](=O)[O-])s1,> 20 µM (inactive)
24,Cc1nn(Cc2ccccc2)c(N)c1C#N,9.44 µM

row,Structure (SMILES),IC50
1,COC(C(=O)Nc1ccc(Br)cc1F)c1ccccc1 (stereo unspecified),10.7 µM
2,N#CCSc1nc2sc3c(c2c(=O)n1C1CCCCC1)CCCC3,> 20 µM (inactive)
3,O=C(CSc1nnc2n1CCCN2C(=S)Nc1ccc(Cl)cc1)c1ccccc1,> 20 µM (inactive)
4,Cc1nnsc1C(=O)NCc1c(F)cccc1Cl,7.64 µM
5,COc1cc(/C=N/Nc2nc3ccccc3[nH]2)cc(Br)c1OCC(=O)N(C)C,> 20 µM (inactive)
6,CN=C(Cc1ccccc1)C1=C(O)CC(C)(C)CC1=O,4.76 µM
7,Cc1nnsc1C(=O)NNc1c(Cl)cccc1Cl,5.04 µM
8,COC(C(=O)Nc1ccc(F)cc1F)c1ccccc1 (stereo unspecified),0.969 µM
9,O=C1CC(c2ccccc2)C(=O)N1c1cccc(O)c1 (stereo unspecified),12.9 µM
10,O=C(Cn1cnc2ccc(Cl)cc2c1=O)c1cccs1,> 20 µM (inactive)
11,CC(=O)OC(C(=O)NC1CCCCC1)c1ccc(Cl)c(Cl)c1 (stereo unspecified),> 20 µM (inactive)
12,COCCNS(=O)(=O)c1ccc(SC)cc1,9.06 µM
13,C=C(C)CSc1nnc2n(Cc3ccccc3)c(=O)c3c4c(sc3n12)CCC4,> 20 µM (inactive)
14,O=C(CSc1ccc(Cl)cc1)N1N=CCC1c1ccccc1 (stereo unspecified),16.4 µM
15,O=C(NCc1c(Cl)cccc1Cl)c1ccc2nnsc2c1,> 20 µM (inactive)
16,O=C(NNc1c(Cl)cccc1Cl)C1CCC1,9.85 µM
17,CC(C)c1ccc(O)c(NC(=O)c2cncc(Br)c2)c1,> 20 µM (inactive)
18,Cc1csc(SCC(=O)NC(=O)NC2CCCC2)n1,12.2 µM
19,Cc1ccc(C(=O)NC(C#N)=C(Cl)Cl)cc1,> 20 µM (inactive)
20,Cc1csc(Nc2ccccc2)[n+]1-c1ccccc1,> 20 µM (inactive)
21,O=C(c1ccc([N+](=O)[O-])cc1)N1CCSC1c1ccccc1Cl (stereo unspecified),> 20 µM (inactive)
22,Cc1cnc(NC(=O)C2COc3ccccc3O2)s1 (stereo unspecified),> 20 µM (inactive)
23,Cc1csc(Nc2ccc(Cl)cc2)[n+]1-c1ccc(Cl)cc1,> 20 µM (inactive)
24,O=[N+]([O-])c1ncn(Cc2c(Cl)cccc2Cl)n1,13.1 µM

row,Structure (SMILES),IC50
1,Cc1ccc(SCC(=O)N2N=CCC2c2ccccc2)cc1 (stereo unspecified),11.8 µM
2,Cc1nc2oc3ccccc3c(=O)c2c(=O)n1Cc1ccccc1,14.4 µM
3,Cc1nn(Cc2c(F)cccc2Cl)c(C)c1[N+](=O)[O-],> 20 µM (inactive)
4,O=C1NC(Cc2c[nH]c3ccccc23)C(=O)N1CCOc1ccc(F)cc1 (stereo unspecified),10 µM
5,COc1ccc(-n2cnc3cc(NS(=O)(=O)c4ccccc4)ccc32)cc1,> 20 µM (inactive)
6,COc1ccc(-n2c(C)nc3sc4c(c3c2=O)CCC4)cc1,4.17 µM
7,O=C(Nc1cccc2ccccc12)N1N=CCC1c1ccccc1 (stereo unspecified),> 20 µM (inactive)
8,Cc1ccc(C)c(C2=NNC(=NCc3ccccc3)SC2)c1,15.2 µM
9,Cc1ccc2[nH]c3c(c2c1)CCc1cn[nH]c1-3,1.14 µM
10,Clc1ccc(C2=NNC(=NCc3ccccc3)SC2)cc1,> 20 µM (inactive)
11,O=C(Nc1ccc(Cl)c(Cl)c1)N1N=CCC1c1ccccc1 (stereo unspecified),11.8 µM
12,CCn1c(O)c(C=NCc2ccccc2)sc1=S,> 20 µM (inactive)
13,Cc1cnc(NC(=O)C2(c3ccccc3)CC2)s1,> 20 µM (inactive)
14,O=C(OC(C(=O)Nc1ccc([N+](=O)[O-])cc1Br)c1ccccc1)c1ccccc1 (stereo unspecified),> 20 µM (inactive)
15,Clc1cccc(Cl)c1Cn1ccc(C2CC2)n1,4.75 µM
16,Clc1ccc2[nH]c3c(c2c1)CCc1cn[nH]c1-3,5.28 µM
17,O=C(CN1CCN(C(c2ccccc2)c2ccccc2)CC1)N1N=CCC1c1ccccc1 (stereo unspecified),> 20 µM (inactive)
18,CC(=O)N(CC1CCCO1)c1nnc(-c2cnccn2)s1 (stereo unspecified),5.94 µM
19,Cc1ccc(CC(=O)Nc2ncc([N+](=O)[O-])s2)cc1,> 20 µM (inactive)
20,Cc1ccc(NC(=O)CSCc2ccc(F)cc2)cc1,> 20 µM (inactive)
